# pIC50: −log10 of the molar value. Where a name gives a salt, the structure may show the parent alone.
# Target: human recombinant KAT-II (Homo sapiens (Human), UniProt Q8N5Z0)
# Test: KAT-II inhibitory test
# Format: biochemical
# Details: 3.0 μmol/L kynurenine, 37° C. for 1 hr, kynurenic acid by HPLC
# Method: The compounds described in the above-mentioned Examples were used for the KAT-II inhibitory test.
# Human recombinant KAT-II was prepared as follows.
# His tag and maltose binding protein tag were added to the N-terminal of a gene encoding human KAT-II (Genbank accession number: AF481738.1), and the obtained gene was incorporated into pET32 (Merck Nihon Millipore), which is an Escherichia coli expression vector. Human recombinant KAT-II produced by BL21(DE3) Escherichia coli (Merck Nihon Millipore, 69450) transformed using the plasmid was purified using an amylose resin column (New England Biolabs, #800-21 L).
# The inhibitory action of the test compound on human recombinant KAT-II was determined by the following method.
# To a reaction mixture (45 μL) containing 3.0 μmol/L kynurenine, 10 μmol/L pyridoxal phosphate, 2.0 ng/μL human recombinant KAT-II, and 150 mmol/L tris(hydroxymethyl)aminomethane-acetate buffer (pH 8.0) was added a 10% dimethyl sulfoxide solution (5 μL) of each test compound prepared, and the mixture was reacted at 37° C. for 1 hr. After the reaction, 50% trichloroacetic acid (5 μL) was added to terminate the reaction.
# The resultant kynurenic acid was quantified as follows by high performance liquid chromatography. An enzyme reaction mixture was separated by an octadecylsilane reversed-phase column (SC-50DS, Eicom Corporation; mobile phase: 250 mmol/L zinc acetate, 50 mmol/L sodium acetate, and 5.0% acetonitrile (pH 6.2)) incubated at 30° C., and kynurenic acid was quantified using a fluorescence detector (RF-20Axs, Shimadzu Corporation) at excitation wavelength 354 nm, detection wavelength 460 nm. The analytical curve was drawn every time by an external standard method. Each test compound was tested by dual measurement at each concentration. The kynurenic acid level in the presence of a test compound at each concentration was converted into % relative to kynurenic acid resulting from a reaction with an enzyme alone as 100%, and the obtained values were fitted to S-curve to determine IC50.
# Chain of human recombinant KAT-II (Q8N5Z0 30-425): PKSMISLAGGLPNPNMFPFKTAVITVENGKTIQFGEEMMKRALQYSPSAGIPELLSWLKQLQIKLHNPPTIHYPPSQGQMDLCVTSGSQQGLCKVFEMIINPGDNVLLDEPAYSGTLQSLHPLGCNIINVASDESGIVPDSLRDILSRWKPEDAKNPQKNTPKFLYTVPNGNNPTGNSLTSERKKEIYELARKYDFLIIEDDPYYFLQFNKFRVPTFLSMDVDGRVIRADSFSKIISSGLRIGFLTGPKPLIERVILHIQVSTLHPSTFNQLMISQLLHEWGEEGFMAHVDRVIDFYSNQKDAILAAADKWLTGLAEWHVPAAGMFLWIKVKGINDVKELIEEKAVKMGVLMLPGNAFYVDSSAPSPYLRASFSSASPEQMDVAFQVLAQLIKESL
row,Compound,pIC50
1,N#Cc1cnc2nc(N3CCC[C@@H]3C(=O)NCc3ccccc3)sc2c1C1CC1 [Example 161],7.09
2,"O=C(NCc1ccc(F)cc1)[C@H]1CCCN1c1nc2ncc(C3CC3)cc2s1 [Example 162, (R)-1-(6-cyclopropyl[1,3]thiazolo[4,5-b]pyridin-2-yl)-N-(4-fluorobenzyl)pyrrolidine-2-carboxamide]",6.52
3,"COCc1c(F)cnc2nc(N3CCC[C@@H]3C(=O)NCc3ccccc3)sc12 [Example 163, (R)—N-benzyl-1-[6-fluoro-7-(methoxymethyl)[1,3]thiazolo[4,5-b]pyridin-2-yl]pyrrolidine-2-carboxamide]",6.04
4,CCOc1c(COC)cnc2nc(N3CCC[C@@H]3C(=O)NCc3ccccc3)sc12 [Example 164],6.82
5,"Cc1nc(C(C)(C)c2cnc3nc(N4CCC[C@@H]4C(=O)NCc4ccccc4)sc3c2)no1 [Example 171, (R)—N-benzyl-1-{6-[2-(5-methyl-1,2,4-oxadiazol-3-yl)propan-2-yl][1,3]thiazolo[4,5-b]pyridin-2-yl}pyrrolidine-2-carboxamide]",6.41
6,"CN(C)Cc1cnc2nc(N3CCC[C@@H]3C(=O)NCc3ccccc3)sc2c1C1CC1 [Example 176, (R)—N-benzyl-1-{7-cyclopropyl-6-[(dimethylamino)methyl][1,3]thiazolo[4,5-b]pyridin-2-yl}pyrrolidine-2-carboxamide hydrochloride]",6.72
7,N#Cc1cnc2nc(N3CCC[C@@H]3C(=O)NCc3ccccc3Cl)sc2c1 [Example 178],6.05
8,CCc1cnc2nc(N3CCC[C@@H]3C(=O)NCc3ccccc3)sc2n1 [Example 187],6.85
9,CCc1cnc2nc(N3CCC[C@@H]3C(=O)NCc3ccc(F)cc3)sc2n1 [Example 188],6.52
10,CN(C)c1cnc2nc(N3CCC[C@@H]3C(=O)NCc3ccccc3)sc2n1 [Example 191],6.68
11,"Cc1cnc2nc([C@H]3CCCN3C(=O)Cc3ccccc3)sc2c1 [Example 196, 1-[(R)-2-(6-methyl[1,3]thiazolo[4,5-b]pyridin-2-yl)pyrrolidin-1-yl]-2-phenylethanone]",5.54
12,"Cc1cnc2nc([C@H]3CCCN3C(=O)NC3(c4ccccc4)CC3)sc2c1 [Example 203, (R)-2-(6-methyl[1,3]thiazolo[4,5-b]pyridin-2-yl)-N-(1-phenylcyclopropyl)-pyrrolidine-1-carboxamide]",5.13

# More lines, now with the values ahead:
row,pIC50,Compound
1,7.47,"CCc1c(-c2cnn(C)c2)cnc2nc(N3CCC[C@@H]3C(=O)NCc3ccccc3)sc12 [Example 170, (R)—N-benzyl-1-[7-ethyl-6-(1-methyl-1H-pyrazol-4-yl)[1,3]thiazolo[4,5-b]pyridin-2-yl]pyrrolidine-2-carboxamide]"
2,6.44,"O=C(NCc1ccccc1)[C@H]1CCCN1c1nc2ncc(CN3CCCCC3)c(C3CC3)c2s1 [Example 175, (R)—N-benzyl-1-[7-cyclopropyl-6-(piperidin-1-ylmethyl)[1,3]thiazolo[4,5-b]pyridin-2-yl]pyrrolidine-2-carboxamide hydrochloride]"
3,6.19,"Cc1nc(-c2cnc3nc(N4CCC[C@@H]4C(=O)NCc4ccccc4)sc3c2)no1 [Example 183, (R)—N-benzyl-1-[6-(5-methyl-1,2,4-oxadiazol-3-yl)[1,3]thiazolo[4,5-b]pyridin-2-yl]pyrrolidine-2-carboxamide]"
4,6.68,O=C(NCc1ccccc1)[C@H]1CCCN1c1nc2ncc(-c3ccccc3)nc2s1 [Example 189]
5,6.31,CCOc1cnc2nc(N3CCC[C@@H]3C(=O)NCc3ccccc3)sc2n1 [Example 190]
6,7.48,"O=C(NCc1ccccc1)[C@H]1CCCN1c1nc2ncc(C3CC3)nc2s1 [Example 192, (R)—N-benzyl-1-(6-cyclopropyl[1,3]thiazolo[4,5-b]pyrazin-2-yl)pyrrolidine-2-carboxamide]"
7,5.52,"Cc1cnc2nc([C@H]3CCCN3C(=O)Oc3ccccc3)sc2c1 [Example 197, phenyl (R)-2-(6-methyl[1,3]thiazolo[4,5-b]pyridin-2-yl) pyrrolidine-1-carboxylate]"

# — patent US10793582B2, “Bicyclic heterocyclic compound” (MITSUBISHI TANABE PHARMA CORPORATION, priority 2015, dated 2020)
